Measured values published in PubChem BioAssay (NCI).
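A five-concentration, 48-hour dose response in 96-well plates underlies each endpoint, interpolated linearly between surrounding concentrations. TGI is the concentration that stops growth completely.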

How the values were obtained:
Assay in all cases: NCI anticancer screen, dose series, 48 h
OVCAR-3 ovarian = test system: OVCAR-3 ovarian
CAKI-1 renal = test system: CAKI-1 renal
KM12 colon = test system: KM12 colon
786-0 renal = test system: 786-0 renal
SNB-75 CNS = test system: SNB-75 CNS
UACC-62 melanoma = test system: UACC-62 melanoma
NCI-H522 lung = test system: NCI-H522 lung
MALME-3M melanoma = test system: MALME-3M melanoma
HL-60(TB) leukemia = test system: HL-60(TB) leukemia
CCRF-CEM leukemia = test system: CCRF-CEM leukemia
IGROV1 ovarian = test system: IGROV1 ovarian
EKVX NSCLC = test system: EKVX NSCLC
SK-MEL-28 melanoma = test system: SK-MEL-28 melanoma
SF-539 CNS = test system: SF-539 CNS
SF-295 CNS = test system: SF-295 CNS
SK-MEL-2 melanoma = test system: SK-MEL-2 melanoma
DMS 273 small cell lung = test system: DMS 273 small cell lung
SNB-19 CNS = test system: SNB-19 CNS
TK-10 renal = test system: TK-10 renal
DLD-1 colon = test system: DLD-1 colon
RXF 393 renal = test system: RXF 393 renal
HOP-92 NSCLC = test system: HOP-92 NSCLC
SNB-78 CNS = test system: SNB-78 CNS
ACHN renal = test system: ACHN renal
OVCAR-5 ovarian = test system: OVCAR-5 ovarian
SN12C renal = test system: SN12C renal
LXFL 529 NSCLC = test system: LXFL 529 NSCLC
OVCAR-8 ovarian = test system: OVCAR-8 ovarian
U251 CNS = test system: U251 CNS
DMS 114 small cell lung = test system: DMS 114 small cell lung
NCI-H226 lung = test system: NCI-H226 lung
XF 498 CNS = test system: XF 498 CNS
LOX IMVI melanoma = test system: LOX IMVI melanoma
SW-620 colon = test system: SW-620 colon
NCI-H23 lung = test system: NCI-H23 lung
KM20L2 colon = test system: KM20L2 colon
A498 renal = test system: A498 renal
OVCAR-4 ovarian = test system: OVCAR-4 ovarian
MOLT-4 leukemia = test system: MOLT-4 leukemia
RPMI-8226 leukemia = test system: RPMI-8226 leukemia
M19-MEL melanoma = test system: M19-MEL melanoma
HOP-18 NSCLC = test system: HOP-18 NSCLC
HT29 colon = test system: HT29 colon
SF-268 CNS = test system: SF-268 CNS
HCT-116 colon = test system: HCT-116 colon
M14 melanoma = test system: M14 melanoma
UACC-257 melanoma = test system: UACC-257 melanoma
SK-OV-3 ovarian = test system: SK-OV-3 ovarian
COLO 205 colon = test system: COLO 205 colon
A549 NSCLC = test system: A549 NSCLC
K-562 leukemia = test system: K-562 leukemia
SK-MEL-5 melanoma = test system: SK-MEL-5 melanoma
HCT-15 colon = test system: HCT-15 colon
SR leukemia = test system: SR leukemia
UO-31 renal = test system: UO-31 renal
HOP-62 NSCLC = test system: HOP-62 NSCLC
NCI-H460 lung = test system: NCI-H460 lung
HCC-2998 colon = test system: HCC-2998 colon
DU-145 prostate = test system: DU-145 prostate

`COC(=O)c1c/c(=N\NC(=O)CC(=O)Nc2ccc(C)cc2)c2ccccc2o1` was tested, and the TGI (OVCAR-3 ovarian) was > 100 µM, the TGI (CAKI-1 renal) was > 100 µM and the TGI (KM12 colon) was > 100 µM. The TGI (786-0 renal) was > 100 µM, the TGI (SNB-75 CNS) was > 100 µM and the TGI (UACC-62 melanoma) was > 100 µM. For the same molecule, the TGI (NCI-H522 lung) was > 100 µM, the TGI (MALME-3M melanoma) was > 100 µM and the TGI (HL-60(TB) leukemia) was > 100 µM. For the same molecule, the TGI (CCRF-CEM leukemia) was > 100 µM, the TGI (IGROV1 ovarian) was > 100 µM and the TGI (EKVX NSCLC) was > 100 µM. The TGI (SK-MEL-28 melanoma) was > 100 µM, the TGI (SF-539 CNS) was > 100 µM and the TGI (SF-295 CNS) was > 100 µM. The TGI (SK-MEL-2 melanoma) was > 100 µM, the TGI (DMS 273 small cell lung) was > 100 µM and the TGI (SNB-19 CNS) was > 100 µM. For the same molecule, the TGI (TK-10 renal) was > 100 µM, the TGI (DLD-1 colon) was > 100 µM and the TGI (RXF 393 renal) was > 100 µM. The TGI (HOP-92 NSCLC) was > 100 µM, the TGI (SNB-78 CNS) was > 100 µM and the TGI (ACHN renal) was > 100 µM. For the same molecule, the TGI (OVCAR-5 ovarian) was > 100 µM, the TGI (SN12C renal) was > 100 µM and the TGI (LXFL 529 NSCLC) was > 100 µM. The TGI (OVCAR-8 ovarian) was > 100 µM, the TGI (U251 CNS) was > 100 µM and the TGI (DMS 114 small cell lung) was > 100 µM. The TGI (NCI-H226 lung) was > 100 µM, the TGI (XF 498 CNS) was > 100 µM and the TGI (LOX IMVI melanoma) was > 100 µM. For the same molecule, the TGI (SW-620 colon) was > 100 µM, the TGI (NCI-H23 lung) was > 100 µM and the TGI (KM20L2 colon) was > 100 µM. The TGI (A498 renal) was > 100 µM, the TGI (OVCAR-4 ovarian) was > 100 µM and the TGI (MOLT-4 leukemia) was > 100 µM. For the same molecule, the TGI (RPMI-8226 leukemia) was > 100 µM, the TGI (M19-MEL melanoma) was > 100 µM and the TGI (HOP-18 NSCLC) was > 100 µM. For the same molecule, the TGI (HT29 colon) was > 100 µM, the TGI (SF-268 CNS) was > 100 µM and the TGI (HCT-116 colon) was > 100 µM. For the same molecule, the TGI (M14 melanoma) was > 100 µM, the TGI (UACC-257 melanoma) was > 100 µM and the TGI (SK-OV-3 ovarian) was > 100 µM. For the same molecule, the TGI (COLO 205 colon) was > 100 µM, the TGI (A549 NSCLC) was > 100 µM and the TGI (K-562 leukemia) was > 100 µM. The TGI (SK-MEL-5 melanoma) was > 100 µM, the TGI (HCT-15 colon) was > 100 µM and the TGI (SR leukemia) was > 100 µM. For the same molecule, the TGI (UO-31 renal) was > 100 µM, the TGI (HOP-62 NSCLC) was > 100 µM and the TGI (NCI-H460 lung) was > 100 µM.

`O=CN/C=C/c1ccccc1O` was tested, and the TGI (OVCAR-3 ovarian) was > 100 µM, the TGI (CAKI-1 renal) was > 100 µM and the TGI (KM12 colon) was > 100 µM. For the same molecule, the TGI (786-0 renal) was > 100 µM, the TGI (SNB-75 CNS) was > 100 µM and the TGI (UACC-62 melanoma) was > 100 µM. The TGI (NCI-H522 lung) was > 100 µM, the TGI (MALME-3M melanoma) was > 100 µM and the TGI (HL-60(TB) leukemia) was > 100 µM. The TGI (CCRF-CEM leukemia) was > 100 µM, the TGI (IGROV1 ovarian) was > 100 µM and the TGI (EKVX NSCLC) was > 100 µM. The TGI (SK-MEL-28 melanoma) was > 100 µM, the TGI (SF-539 CNS) was > 100 µM and the TGI (SF-295 CNS) was > 100 µM. For the same molecule, the TGI (SK-MEL-2 melanoma) was > 100 µM, the TGI (DMS 273 small cell lung) was > 100 µM and the TGI (SNB-19 CNS) was > 100 µM. For the same molecule, the TGI (TK-10 renal) was > 100 µM, the TGI (DLD-1 colon) was > 100 µM and the TGI (RXF 393 renal) was > 100 µM. The TGI (HOP-92 NSCLC) was > 100 µM, the TGI (SNB-78 CNS) was > 100 µM and the TGI (ACHN renal) was > 100 µM. For the same molecule, the TGI (OVCAR-5 ovarian) was > 100 µM, the TGI (SN12C renal) was > 100 µM and the TGI (LXFL 529 NSCLC) was > 100 µM. For the same molecule, the TGI (OVCAR-8 ovarian) was > 100 µM, the TGI (U251 CNS) was > 100 µM and the TGI (DMS 114 small cell lung) was > 100 µM. For the same molecule, the TGI (NCI-H226 lung) was > 100 µM, the TGI (LOX IMVI melanoma) was > 100 µM and the TGI (SW-620 colon) was > 100 µM. The TGI (NCI-H23 lung) was > 100 µM, the TGI (KM20L2 colon) was > 100 µM and the TGI (HCC-2998 colon) was > 100 µM. For the same molecule, the TGI (A498 renal) was > 100 µM, the TGI (OVCAR-4 ovarian) was > 100 µM and the TGI (DU-145 prostate) was > 100 µM. The TGI (MOLT-4 leukemia) was > 100 µM, the TGI (RPMI-8226 leukemia) was > 100 µM and the TGI (M19-MEL melanoma) was > 100 µM. For the same molecule, the TGI (HOP-18 NSCLC) was > 100 µM, the TGI (HT29 colon) was > 100 µM and the TGI (SF-268 CNS) was > 100 µM. The TGI (HCT-116 colon) was > 100 µM, the TGI (M14 melanoma) was > 100 µM and the TGI (UACC-257 melanoma) was > 100 µM. The TGI (SK-OV-3 ovarian) was > 100 µM, the TGI (COLO 205 colon) was > 100 µM and the TGI (A549 NSCLC) was > 100 µM. The TGI (K-562 leukemia) was > 31.6 µM, the TGI (SK-MEL-5 melanoma) was > 100 µM and the TGI (HCT-15 colon) was > 100 µM. The TGI (SR leukemia) was > 100 µM, the TGI (UO-31 renal) was > 100 µM and the TGI (HOP-62 NSCLC) was > 100 µM. The TGI (NCI-H460 lung) was > 100 µM.
